Results reported in paper PMC9611727, “Optimization of a Novel Mandelamide-Derived Pyrrolopyrimidine Series of PERK Inhibitors” (Pharmaceutics, 2022).
Numbering of substitutions follows the chain as printed.

Tests used:
Assay in all cases: scanMAX kinase panel
Assay type in all cases: binding
Details in all cases: read-out: % Control; for remaining binding at 1 µM: 1000 nM
[1] = target: T1, TRKC (Homo sapiens, UniProt Q16288)
T1 construct: purchased DiscoverX (scanMAX panel)
Description: (§1) Supplemental Table S2. scanMAXSM Kinome Assay Results. Complete tabulated data of all 468 kinases from the panel, including
(§2) 403 wild-type and 65 mutant isoforms. […] Cmpd 11 and Cmpd 24

[2] = target: T2, FLT3(K663Q) (Homo sapiens, UniProt P36888, K663Q)
T2 construct: purchased DiscoverX scanMAX
T2 sequence (P36888 27-993 K663Q): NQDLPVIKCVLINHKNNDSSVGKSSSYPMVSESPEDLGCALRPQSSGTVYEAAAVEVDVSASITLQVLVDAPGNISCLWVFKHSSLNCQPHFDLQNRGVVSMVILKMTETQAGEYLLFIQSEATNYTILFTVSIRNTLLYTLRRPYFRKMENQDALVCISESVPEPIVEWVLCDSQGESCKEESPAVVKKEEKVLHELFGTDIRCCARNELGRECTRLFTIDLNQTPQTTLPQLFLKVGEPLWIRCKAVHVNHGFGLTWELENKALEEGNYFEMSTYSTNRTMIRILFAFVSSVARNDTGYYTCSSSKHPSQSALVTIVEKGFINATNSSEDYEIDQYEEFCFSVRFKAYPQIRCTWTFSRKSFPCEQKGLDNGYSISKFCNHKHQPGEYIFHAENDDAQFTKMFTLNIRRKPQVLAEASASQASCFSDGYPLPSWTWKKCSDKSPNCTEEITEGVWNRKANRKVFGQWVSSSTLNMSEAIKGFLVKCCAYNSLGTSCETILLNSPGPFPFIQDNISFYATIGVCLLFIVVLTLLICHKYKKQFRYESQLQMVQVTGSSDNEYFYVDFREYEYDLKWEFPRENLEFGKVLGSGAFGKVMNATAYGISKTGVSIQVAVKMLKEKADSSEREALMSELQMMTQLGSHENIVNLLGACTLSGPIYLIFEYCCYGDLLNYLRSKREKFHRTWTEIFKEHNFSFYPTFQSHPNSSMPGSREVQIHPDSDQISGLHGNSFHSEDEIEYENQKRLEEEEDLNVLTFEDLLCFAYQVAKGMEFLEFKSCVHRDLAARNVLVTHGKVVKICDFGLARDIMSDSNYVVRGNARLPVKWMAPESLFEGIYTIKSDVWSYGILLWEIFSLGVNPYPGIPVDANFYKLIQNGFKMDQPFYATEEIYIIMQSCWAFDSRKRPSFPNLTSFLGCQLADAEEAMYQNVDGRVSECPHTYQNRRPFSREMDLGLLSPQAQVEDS
Description: as §1, §2

[3] = target: T3, MAP3K2 (Homo sapiens, UniProt Q9Y2U5)
T3 construct: purchased DiscoverX scanMAX
T3 sequence (Q9Y2U5 1-619): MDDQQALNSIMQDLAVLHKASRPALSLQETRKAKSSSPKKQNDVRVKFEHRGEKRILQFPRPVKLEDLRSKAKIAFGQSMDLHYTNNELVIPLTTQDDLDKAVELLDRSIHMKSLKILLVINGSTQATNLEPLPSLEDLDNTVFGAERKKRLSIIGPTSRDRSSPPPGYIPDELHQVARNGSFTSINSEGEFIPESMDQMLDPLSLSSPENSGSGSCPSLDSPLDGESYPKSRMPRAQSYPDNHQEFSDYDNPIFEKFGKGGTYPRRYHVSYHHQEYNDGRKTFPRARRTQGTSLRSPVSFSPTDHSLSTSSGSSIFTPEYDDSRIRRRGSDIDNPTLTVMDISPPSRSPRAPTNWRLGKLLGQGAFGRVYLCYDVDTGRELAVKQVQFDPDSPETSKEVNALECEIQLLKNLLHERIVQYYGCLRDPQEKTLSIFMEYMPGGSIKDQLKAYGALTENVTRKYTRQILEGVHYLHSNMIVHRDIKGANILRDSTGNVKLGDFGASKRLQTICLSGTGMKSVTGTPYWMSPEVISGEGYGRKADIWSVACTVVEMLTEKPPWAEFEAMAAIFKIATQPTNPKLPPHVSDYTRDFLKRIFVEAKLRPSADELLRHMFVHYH
Description: as §1, §2

[4] = target: T4, FLT3(R834Q) (Homo sapiens, UniProt P36888, R834Q)
T4 construct: purchased DiscoverX scanMAX
T4 sequence (P36888 27-993 R834Q): T2 sequence (P36888 27-993 K663Q) with Q637K, R808Q
Description: as §1, §2

[5] = target: T5, TIE2 (Homo sapiens, UniProt Q02763)
T5 construct: purchased DiscoverX (scanMAX panel)
T5 sequence (Q02763 23-1124): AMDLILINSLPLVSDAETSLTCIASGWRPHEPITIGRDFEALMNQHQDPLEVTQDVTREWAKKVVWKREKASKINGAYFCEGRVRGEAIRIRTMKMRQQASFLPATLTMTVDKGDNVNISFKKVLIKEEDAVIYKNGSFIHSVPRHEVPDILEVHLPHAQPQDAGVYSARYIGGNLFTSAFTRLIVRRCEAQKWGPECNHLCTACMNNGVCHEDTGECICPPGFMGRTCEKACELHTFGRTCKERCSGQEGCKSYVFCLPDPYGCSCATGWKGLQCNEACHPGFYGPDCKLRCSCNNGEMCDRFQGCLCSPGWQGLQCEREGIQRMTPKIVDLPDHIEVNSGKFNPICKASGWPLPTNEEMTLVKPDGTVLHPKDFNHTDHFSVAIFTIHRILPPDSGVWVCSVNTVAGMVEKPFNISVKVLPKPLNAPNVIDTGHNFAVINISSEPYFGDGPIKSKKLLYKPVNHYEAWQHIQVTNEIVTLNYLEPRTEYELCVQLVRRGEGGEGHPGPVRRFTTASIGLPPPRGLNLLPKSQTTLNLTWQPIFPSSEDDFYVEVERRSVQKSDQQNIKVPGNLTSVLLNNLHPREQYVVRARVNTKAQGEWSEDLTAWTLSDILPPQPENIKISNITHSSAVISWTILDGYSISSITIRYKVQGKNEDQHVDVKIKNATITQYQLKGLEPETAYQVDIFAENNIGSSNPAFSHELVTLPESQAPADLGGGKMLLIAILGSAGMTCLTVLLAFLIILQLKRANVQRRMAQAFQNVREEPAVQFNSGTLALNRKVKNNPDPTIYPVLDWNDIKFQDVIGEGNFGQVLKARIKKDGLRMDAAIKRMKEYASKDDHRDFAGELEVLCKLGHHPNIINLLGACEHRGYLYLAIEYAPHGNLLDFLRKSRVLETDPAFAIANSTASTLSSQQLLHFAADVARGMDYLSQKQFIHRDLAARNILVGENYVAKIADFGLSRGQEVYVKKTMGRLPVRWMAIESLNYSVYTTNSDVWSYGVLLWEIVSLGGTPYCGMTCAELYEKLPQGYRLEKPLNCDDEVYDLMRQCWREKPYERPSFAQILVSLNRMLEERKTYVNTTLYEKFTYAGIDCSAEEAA
Description: as §1, §2

[6] = target: T6, MKNK2 (Homo sapiens, UniProt Q9HBH9)
T6 construct: purchased DiscoverX scanMAX
T6 sequence (Q9HBH9 whole entry): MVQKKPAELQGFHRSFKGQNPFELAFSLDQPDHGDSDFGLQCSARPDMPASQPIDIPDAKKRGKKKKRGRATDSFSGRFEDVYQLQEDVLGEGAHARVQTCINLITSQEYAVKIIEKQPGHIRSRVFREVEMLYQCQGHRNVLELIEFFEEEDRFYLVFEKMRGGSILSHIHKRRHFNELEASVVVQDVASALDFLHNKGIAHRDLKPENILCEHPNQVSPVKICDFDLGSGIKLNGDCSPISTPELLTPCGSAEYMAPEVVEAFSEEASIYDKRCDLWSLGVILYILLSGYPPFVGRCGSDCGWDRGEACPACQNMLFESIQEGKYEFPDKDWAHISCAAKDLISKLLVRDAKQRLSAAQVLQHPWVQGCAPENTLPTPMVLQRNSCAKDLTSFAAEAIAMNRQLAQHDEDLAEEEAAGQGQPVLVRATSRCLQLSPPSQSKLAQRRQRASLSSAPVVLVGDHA
Description: as §1, §2

T1 sequence (Q16288 32-839): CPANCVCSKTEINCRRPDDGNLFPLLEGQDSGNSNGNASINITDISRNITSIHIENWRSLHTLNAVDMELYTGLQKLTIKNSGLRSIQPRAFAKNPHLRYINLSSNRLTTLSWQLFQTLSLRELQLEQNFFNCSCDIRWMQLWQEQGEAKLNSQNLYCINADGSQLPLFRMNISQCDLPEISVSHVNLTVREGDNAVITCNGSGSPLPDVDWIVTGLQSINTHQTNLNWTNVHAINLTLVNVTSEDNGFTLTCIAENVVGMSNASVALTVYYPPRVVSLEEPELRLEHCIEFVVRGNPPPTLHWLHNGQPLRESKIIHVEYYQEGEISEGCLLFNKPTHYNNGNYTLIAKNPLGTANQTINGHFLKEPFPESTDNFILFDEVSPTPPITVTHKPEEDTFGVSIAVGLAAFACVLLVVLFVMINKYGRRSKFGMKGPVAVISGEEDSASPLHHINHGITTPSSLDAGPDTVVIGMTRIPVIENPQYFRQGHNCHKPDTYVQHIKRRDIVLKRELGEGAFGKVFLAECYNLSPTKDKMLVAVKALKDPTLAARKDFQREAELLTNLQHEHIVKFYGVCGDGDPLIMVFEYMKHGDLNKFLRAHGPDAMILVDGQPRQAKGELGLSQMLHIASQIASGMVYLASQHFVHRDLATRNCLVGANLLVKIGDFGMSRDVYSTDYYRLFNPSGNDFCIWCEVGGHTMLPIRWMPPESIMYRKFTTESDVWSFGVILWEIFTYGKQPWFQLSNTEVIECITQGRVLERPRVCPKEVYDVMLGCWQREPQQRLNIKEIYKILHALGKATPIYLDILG

| SMILES | remaining binding at 1 µM [1] | remaining binding at 1 µM [2] | remaining binding at 1 µM [3] | remaining binding at 1 µM [4] | remaining binding at 1 µM [5] | remaining binding at 1 µM [6] | remaining binding at 0.1 µM ([1]; 100 nM) | remaining binding at 0.1 µM ([2]; 100 nM) | remaining binding at 0.1 µM ([3]; 100 nM) | remaining binding at 0.1 µM ([4]; 100 nM) | remaining binding at 0.1 µM ([5]; 100 nM) | remaining binding at 0.1 µM ([6]; 100 nM) |
| --- | --- | --- | --- | --- | --- | --- | --- | --- | --- | --- | --- | --- |
| Cc1cc(NC(=O)[C@H](O)c2cccc(F)c2)ccc1-c1cn(C)c2ncnc(N)c12 [Compound 11, (R)-N-(4-(4-amino-7-methyl-7H-pyrrolo[2,3-d]pyrimidin-5-yl)-3-methylphenyl)-2-(3-fluorophenyl)-2-hydroxy acetamide] | 9.5% | 26% | 14% | 59% | 14% | 1.2% |  |  |  |  |  |  |
| Cc1nc(N)c2c(-c3ccc(NC(=O)[C@H](O)c4cccc(F)c4)cc3C)cn(C)c2n1 [Compound 24] | 79% | 83% | 100% | 98% | 100% | 58% |  |  |  |  |  |  |
| Cc1nc(N)c2c(-c3ccc(NC(=O)[C@H](O)c4cccc(C(F)(F)F)c4)cc3C)cn(C)c2n1 [Compound 26] | 10% | 20% | 89% | 7.5% | 65% | 3.9% | 100% | 51% | 100% | 84% | 100% | 88% |
